What was measured:
[1] = tested on: phospho-ERK; experiment: stimulation of phospho-ERK in FGF2-starved hiPSC by media stored at 37° C. (Western blot); assay type: cell-based, human; conditions: FIG. 7E
Description: FIG. 7A-E. Qualification of B8 as Suitable for hiPSC Generation and Culture. […] (B) Expression of pluripotent markers in a variety of B8-derived hiPSC lines. (C) Example G-banding karyotype analysis of four hiPSC lines derived in B8 from blood. (D) hiPSC growth at low seeding densities in B8 compared to E8 (n=8). (E) Assessment of stimulation of phospho-ERK after media had been stored at 37° C. for 2 or 7 days, comparing in-house generated FGF2-G3 to a commercial FGF2 (Peprotech). hiPSC were starved of FGF2 for 24 h then treated with the indicated media for 1 h before collection for Western blot. Total ERK was used as a loading control.
Stock lysis buffer was prepared as 150 mM NaCl, 20 mM Tris pH 7.5, 1 mM EDTA, 1 mM EGTA, and 1% Triton X-100 and stored at 4° C. Fresh complete lysis buffer was prepared with final concentration of 1× Protease Inhibitor (Roche, 5892791001), 1× Phosphatase Inhibitor Cocktail 2 (P5726, Sigma), 1× Phosphatase Inhibitor Cocktail 3 (Sigma, P0044), 2 mM PMSF (Sigma, P7626), and 1% SDS Solution (Fisher Scientific, BP2436200). hiPSC were starved using B8 without FGF2 for 24 hours, then treated with media containing the corresponding FGF2 for 1 h. Media was then removed, and cells were washed once with DPBS, harvested with 0.5 mM EDTA in DPBS, and transferred into tubes. Samples were pelleted by centrifugation at 500×g for 3 minutes and the supernatant was discarded. The pellet was resuspend in 150 μl complete lysis buffer and incubated on ice for 30 min. Clear lysates were collected by centrifugation at 10,000×g for 10 min at 4° C. The protein concentration was measured with Qubit Protein Assay Kit (Invitrogen, Q33211) and Qubit 4 fluorometer. Lysates was stored in −80° C. before use. 10 μg of sample was prepared with NuPAGE™ LDS Sample Buffer (Invitrogen, B0007) and NuPAGE™ Reducing Agent (Invitrogen, B0009) according to the manufacturer's instructions and run on NuPAGE™ 10% Bis-Tris Gel (Invitrogen, NP0302BOX) and Mini Gel Tank system (Invitrogen, A25977) with Bolt MES SDS Running Buffer (Invitrogen, B000202) at 100 V for 1 h. […]

[2] = tested on: hiPSC; experiment: weekend-free media change / passaging schedule growth; assay type: cell-based, human; conditions: various doses, FIG. 8E
Description: FIG. 8A-H. Optimization of Weekend-Free Passaging Schedule that is Still Compatible with Monolayer Differentiation. (A) Establishment of an optimal 4-day media change schedule. (B) 7 day passage with media change schedule. (C) 7 day passage only schedule. (D) Comparison of growth when using two 7-day weekend-free passaging schedules with or without addition of 0.5 mg ml−1 albumin (n=2). (E) Comparison the addition of varying levels of albumin (mg ml−1) to a 7-day passage and media change schedule (n=4). (F) Cardiac differentiation efficiency when using 7-day passage and media change schedule (n=5). (G) Endothelial differentiation efficiency when using 7-day passage and media change schedule (n=6). (H) […]
With the understanding that B8 supports hiPSC growth across a variety of sub-optimal conditions (FIG. 7D), we established the suitability of this formula to skip days of media change. […] With the knowledge of the influence of various media change-skipping timelines, we devised a 7-day schedule consisting of passaging cells every 3.5 days that would allow for the skipping of media changes on the weekends, a major caveat of current hiPSC culture protocols (FIGS. 8B and 8C). […]

heparin
effect of component on stability of FGF2-G3 [1]: improved the stability of FGF2-G3 | additive effect in B8 [2]: do not have an additive effect

From patent US20210087525A1, “COST EFFECTIVE CULTURE MEDIA AND PROTOCOL FOR HUMAN INDUCED PLURIPOTENT STEM CELLS” (NORTHWESTERN UNIVERSITY, priority 2019, published 2021)
